Experimental data published in patent publication US9206191B2, “Indazoles for the treatment and prophylaxis of respiratory syncytial virus infection” (Hoffmann-La Roche Inc., priority 2012, dated 2015).

Tested on: RSV Long strain
Test: Viral Cytopathic Effect (CPE) Assay
Assay type: cell-based
Settings: human respiratory syncytial virus, 144 h, cell viability after 6 days, Cell Counting kit-8

Structure (SMILES) | EC50 [nM]
CS(=O)(=O)c1nn(Cc2nc3cc(Cl)ccc3n2[C@@H]2CCN(CCO)C2)c2cnccc12 [Example 6-7, 2-[(3R)-3-(5-Chloro-2-{[3-(methylsulfonyl)-1H-pyrazolo[3,4-c]pyridin-1-yl]methyl}-1H-benzimidazol-1-yl)pyrrolidin-1-yl]ethanol] | 3.68
CS(=O)(=O)c1nn(Cc2nc3cc(Cl)ccc3n2C2CNC2)c2cnccc12 [Example 2-14, 1-{[1-(Azetidin-3-yl)-5-chloro-1H-benzimidazol-2-yl]methyl}-3-(methylsulfonyl)-1H-pyrazolo[3,4-c]pyridine] | 708
CS(=O)(=O)c1nn(Cc2nc3cc(Cl)ccc3n2C2C[C@@H](O)[C@H](O)C2)c2cnccc12 [Example 2-45, trans-4-(5-chloro-2-{[3-(methylsulfonyl)-1H-pyrazolo[3,4-c]pyridin-1-yl]methyl}-1H-benzimidazol-1-yl)cyclopentane-1,2-diol] | 6.1
CS(=O)(=O)c1nn(Cc2nc3cc(Cl)ccc3n2[C@H]2CCN(CC(F)(F)F)C2)c2cnccc12 [Example 2-19, 1-({5-Chloro-1-[(3S)-1-(2,2,2-trifluoroethyl)pyrrolidin-3-yl]-1H-benzimidazol-2-yl}methyl)-3-(methylsulfonyl)-1H-pyrazolo[3,4-c]pyridine] | 1170
CC(C)S(=O)(=O)c1cn(Cc2nc3cc(Cl)ccc3n2CCCS(C)(=O)=O)c2ccccc12 [Example 1-6, 5-Chloro-1-[3-(methylsulfonyl)propyl]-2-{[3-(propan-2-ylsulfonyl)-1H-indol-1-yl]methyl}-1H-benzimidazole] | 119
CS(=O)(=O)c1nn(Cc2nc3cc(Cl)ccc3n2CCCO)c2cnccc12 [Example 2-27, 3-(5-Chloro-2-{[3-(methylsulfonyl)-1H-pyrazolo[3,4-c]pyridin-1-yl]methyl}-1H-benzimidazol-1-yl)propan-1-ol] | 7.53
CS(=O)(=O)c1nn(Cc2nc3cc(Cl)ccc3n2C2CCNC2)c2cnccc12 (stereo not shown) [Example 2-13, 1-{[5-Chloro-1-(pyrrolidin-3-yl)-1H-benzimidazol-2-yl]methyl}-3-(methylsulfonyl)-1H-pyrazolo[3,4-c]pyridine] | 44.2
CS(=O)(=O)c1nn(Cc2nc3cc(Cl)ccc3n2[C@H]2C[C@@](O)(CO)C2)c2cnccc12 [Example 2-46, trans-3-(5-chloro-2-{[3-(methylsulfonyl)-1H-pyrazolo[3,4-c]pyridin-1-yl]methyl}-1H-benzimidazol-1-yl)-1-(hydroxymethyl)cyclobutanol] | 7.2

Further compounds by falling EC50, results first:

EC50 [nM] | Structure (SMILES)
312 | CC(C)S(=O)(=O)c1nn(Cc2nc3cc(Cl)ccc3n2CCS(C)(=O)=O)c2ccccc12 [Example 1-13, 1-({5-Chloro-1-[2-(methylsulfonyl)ethyl]-1H-benzimidazol-2-yl}methyl)-3-(propan-2-ylsulfonyl)-1H-indazole]
227 | C[C@H](c1nc2cc(Cl)ccc2n1CCC(F)(F)F)n1nc(S(C)(=O)=O)c2ccncc21 [Example 15-1, 1-{(1R)-1-[5-chloro-1-(3,3,3-trifluoropropyl)-1H-benzimidazol-2-yl]ethyl}-3-(methylsulfonyl)-1H-pyrazolo[3,4-c]pyridine]
17 | CS(=O)(=O)c1nn(Cc2nc3cc(Cl)cc(F)c3n2CCC(F)(F)F)c2cnccc12 [Example 5-1, 1-{[5-Chloro-7-fluoro-1-(3,3,3-trifluoropropyl)-1H-benzimidazol-2-yl]methyl}-3-(methylsulfonyl)-1H-pyrazolo[3,4-c]pyridine]
7.72 | CS(=O)(=O)c1nn(Cc2nc3cc(Cl)ccc3n2C2CCOCC2)c2cnccc12 [Example 2-7, 1-{[5-Chloro-1-(tetrahydro-2H-pyran-4-yl)-1H-benzimidazol-2-yl]methyl}-3-(methylsulfonyl)-1H-pyrazolo[3,4-c]pyridine]
6.07 | CCC(=O)N1CC[C@@H](n2c(Cn3nc(S(C)(=O)=O)c4ccccc43)nc3cc(Cl)ccc32)C1 [Example 6-3, 1-[(3R)-3-(5-Chloro-2-{[3-(methylsulfonyl)-1H-indazol-1-yl]methyl}-1H-benzimidazol-1-yl)pyrrolidin-1-yl]propan-1-one]
